Assay results as given in US20130096067A1, “DROSOPHILA TUMOR STEM CELL MODEL AND USES THEREOF” (priority 2011, published 2013).
Read-outs that look alike come from different tables or passages of the source.

Tested on: Raf-1^gof intestinal tumors
[1] = ICCB compounds fed in vials to flies with one-day old Raf-1^gof tumors, assessed three days later
[2] = ICCB compounds fed in vials to flies with one-day old Raf-1^gof tumors, assessed three days later, averaged from multiple wells
[3] = screen of 480 ICCB compounds in vials, compounds fed to flies with one-day old Raf-1^gof tumors, assessed three days later, esg-Gal4 luciferase
[4] = screen of 480 ICCB compounds in vials, compounds fed to flies with one-day old Raf-1^gof tumors, assessed three days later, esg-Gal4 luciferase, averaged from multiple wells
Throughout, for Fold (luciferase activity relative to DMSO controls): test concentration or dose not given here.
Throughout, for Fold (luciferase activity, fold difference relative to DMSO controls): test concentration or dose not given here.
Throughout, for Log2 (fold) (luciferase activity, log2 of the fold difference relative to DMSO controls): test concentration or dose not given here.
Throughout, for Log2 (fold) of luciferase activity relative to DMSO controls: test concentration or dose not given here.

Compound | Log2 (fold) of luciferase activity relative to DMSO controls [1] | Fold (luciferase activity relative to DMSO controls) [2] [fold] | Log2 (fold) (luciferase activity, log2 of the fold difference relative to DMSO controls) [3] | Fold (luciferase activity, fold difference relative to DMSO controls) [4] | other results
COC(=O)[C@@]1(O)C[C@H]2O[C@]1(C)n1c3ccccc3c3c4c(c5c6ccccc6n2c5c31)C(=O)NC4 [K252A] | 0.364 | 1.287 | – | – | –
O=C1CCc2c(ccc3ccccc23)O1 [Splitomycin] | – | – | −0.241 | 0.846 | –
CCCCC(C)(O)C/C=C/[C@H]1[C@H](O)CC(=O)[C@@H]1CCCCCCC(=O)O (mixture of isomers) [MISOPROSTOL, FREE ACID] | −0.137 | 0.909 | – | – | –
N#CC(=C(/N)Sc1ccccc1N)/C(C#N)=C(/N)Sc1ccccc1N [U-0126] | −0.023 | 0.984 | – | – | –
C/C(=C\c1ccc(C(=O)O)cc1)c1ccc2c(c1)C(C)(C)CCC2(C)C [TTNPB] | −0.114 | 0.924 | – | – | –
COC(=O)c1c(C)[nH]c(C)c1C(=O)c1ccccc1Cc1ccccc1 [FPL-64176] | −0.166 | 0.891 | – | – | –
C=CCNC1=C2C[C@@H](C)C[C@H](OC)[C@H](O)[C@@H](C)/C=C(\C)[C@H](OC(N)=O)[C@@H](OC)/C=C\C=C(/C)C(=O)NC(=CC1=O)C2=O [17-Allylamino-geldanamycin] | – | – | −0.433 | 0.741 | –
O=C(O)c1cc(N(Cc2ccccc2O)Cc2cc(O)ccc2O)ccc1O [Lavendustin A] | – | – | −0.297 | 0.814 | –
Cc1cccc(CCN2CCC(C(=O)c3ccc(NS(C)(=O)=O)cc3)CC2)n1 [E-4031] | −0.195 | 0.874 | – | – | –
COc1cc(/C=C/C(=O)CC(=O)/C=C/c2ccc(O)c(OC)c2)ccc1O [Curcumin] | 0.112 | 1.081 | – | – | –
CC1=C(/C=C/C(C)=C/C=C/C(C)=C/C(=O)Nc2ccc(O)cc2)C(C)(C)CCC1 [4-HYDROXYPHENYLRETINAMIDE] | – | – | −0.244 | 0.845 | –
C=C1CC[C@H](O)C/C1=C/C=C1\CCC[C@]2(C)[C@@H]([C@H](C)CCCC(C)(C)O)CC[C@@H]12 [25-HYDROXYVITAMIN D3] | −0.113 | 0.925 | – | – | –
CCCCCCCCCCCCCCCCCCc1ccc(C(=O)/C=C/C(=O)O)cc1 [OBAA] | −0.169 | 0.890 | – | – | –
Oc1ccc(-c2nc(-c3ccc(F)cc3)c(-c3ccncc3)[nH]2)cc1 [SB 202190] | – | – | −0.222 | 0.857 | –
N#C/C(=C\c1ccc(O)c(O)c1)C(=O)OC/C=C/c1ccccc1 [CDC] | – | – | −0.360 | 0.779 | –
CCCCC[C@H](O)/C=C/[C@@H]1[C@@H](C/C=C\CCCC(=O)O)[C@H](O)C[C@H]1O [9b,11a-PROSTAGLANDIN F2] | 0.062 | 1.044 | – | – | –
C[S+]([O-])c1ccc(-c2nc(-c3ccc(F)cc3)c(-c3ccncc3)[nH]2)cc1 (stereo not drawn) [SB 203580] | – | – | – | – | Fold (luciferase activity relative to DMSO controls) (in vivo): 1.036 fold; Log2 (fold) of luciferase activity relative to DMSO controls (in vivo): 0.051
CCCCC/C=C\C\C=C/C=C/C=C/[C@@H](SCC(NC(C)=O)C(=O)O)[C@@H](O)CCCC(=O)O (stereo partly drawn) [N-ACETYL-LEUKOTRIENE E4] | – | – | −0.318 | 0.802 | –
CCCCCCCCCCC/C=C\C(C)(C)/C=C\CCCC(=O)O [7,7-DIMETHYLEICOSADIENOIC ACID] | 0.021 | 1.014 | – | – | –
COc1cc2c(cc1OC)-c1c/c(=N\c3c(C)cc(C)cc3C)n(C)c(=O)n1CC2 [Trequinsin] | – | – | −0.279 | 0.824 | –
CC1=NN(c2ccccc2)C(=O)C1 [MCI-186] | −0.200 | 0.871 | – | – | –
CCCCC(C)(C)C(O)C=CC1C(O)CC(=O)C1CC=CCCCC(=O)O (stereo not drawn) [16,16-DIMETHYL-PROSTAGLANDIN E2] | −0.013 | 0.991 | – | – | –
CCCCC/C=C\C/C=C\C/C=C\C/C=C\CCCC(=O)NCC(=O)O [N-ARACHIDONOYLGLYCINE] | – | – | – | – | Fold (luciferase activity, fold difference relative to DMSO controls) (in vivo): 0.664; Log2 (fold) (luciferase activity, log2 of the fold difference relative to DMSO controls) (in vivo): −0.590
HA14-1 | – | – | −0.590 | 0.664 | –

Compound | Log2 (fold) of luciferase activity relative to DMSO controls [1] | Fold (luciferase activity relative to DMSO controls) [2] [fold] | Log2 (fold) (luciferase activity, log2 of the fold difference relative to DMSO controls) [3] | Fold (luciferase activity, fold difference relative to DMSO controls) [4] | other results
CCCCC/C=C\C[C@@H](O)/C=C/C=C/C=C\[C@@H](O)CCCC(=O)O [LEUKOTRIENE B4] | −0.037 | 0.975 | – | – | –
CN1CCN(C2=Nc3cc(Cl)ccc3Nc3ccccc32)CC1 [clozapine] | −0.126 | 0.916 | – | – | –
COC(=O)C1=C(C)NC(C)=C(C(=O)OC)C1c1ccccc1[N+](=O)[O-] [NIFEDIPINE] | – | – | −0.417 | 0.749 | –
CO[C@H](C/C=C\C=C\CC/C=C/C[C@H](C)/C=C/C(=C\C(=O)O)CC(=O)O)/C(C)=C\C=C(/C)C(=O)O [bongkrekic acid] | −0.102 | 0.932 | – | – | –
Clc1cccc(Cl)c1N=C1NCCN1 [clonidine] | 0.087 | 1.062 | – | – | –
O=C(O)c1cccnc1Nc1cccc(C(F)(F)F)c1 [NIFLUMIC ACID] | −0.201 | 0.870 | – | – | –
NCCc1c[nH]cn1 [HISTAMINE] | −0.158 | 0.896 | – | – | –
CCCCCCCCCCCCCCC[C@@H](O)[C@H](CO)NC(C)=O [C2 DIHYDROCERAMIDE] | – | – | −0.466 | 0.724 | –
pifithrin | 0.022 | 1.015 | – | – | –
COc1ccc2c(c1)CC[C@@H]1[C@@H]2CC[C@]2(C)[C@@H](NCCCCCCN3C(=O)C=CC3=O)CC[C@@H]12 [U73122] | – | – | −0.865 | 0.549 | –
COc1cccc2c1C(=O)c1c(O)c3c(c(O)c1C2=O)C[C@@](O)(C(=O)CO)C[C@@H]3O[C@H]1C[C@H](N)[C@H](O)[C@H](C)O1 [doxorubicin] | – | – | −0.520 | 0.697 | –
CCCCC/C=C\C[C@@H](O)/C=C/c1cccc(C[C@@H](O)CCCCO)n1 [U-75302] | −0.041 | 0.972 | – | – | –
NC(=O)c1cccc(N)c1 | −0.160 | 0.895 | – | – | –
CC(C)(Oc1ccc(CCNC(=O)c2ccc(Cl)cc2)cc1)C(=O)O [bezafibrate] | −0.211 | 0.864 | – | – | –
C=C[C@H]1C[N@@]2CC[C@H]1C[C@H]2[C@H](O)c1ccnc2ccc(OC)cc12 [QUININE] | −0.201 | 0.870 | – | – | –
CNc1ccc2oc(C[C@H]3O[C@@]4(CC[C@H]3C)O[C@H]([C@H](C)C(=O)c3ccc[nH]3)[C@H](C)C[C@H]4C)nc2c1C(=O)O [A-23187] | 0.176 | 1.130 | – | – | –
CCCCC/C=C\C\C=C/C=C/C=C/[C@@H](SC[C@H](N)C(=O)O)[C@@H](O)CCCC(=O)O [LEUKOTRIENE E4] | – | – | −0.439 | 0.737 | –
Cc1c(C(=O)c2cccc3ccccc23)c2cccc3c2n1[C@H](CN1CCOCC1)CO3 [WIN 55,212-2] | – | – | −0.305 | 0.810 | –
CC(C)(C)c1cc(C=C(C#N)C#N)cc(C(C)(C)C)c1O [tyrphostin 9] | 0.671 | 1.592 | – | – | –
CC(C)[C@]12O[C@H]1[C@@H]1O[C@]13[C@]1(O[C@H]1C[C@H]1C4=C(CC[C@@]13C)C(=O)OC4)[C@@H]2O [triptolide, reference compound] | – | – | – | – | Log2 (fold) (Table 3 summary of hits, Screen ICCB): −2.553
CCCCCCCCCCCCCCCC(=O)N[C@H](CN1CCOCC1)[C@H](O)c1ccccc1 (racemic) [DL-PPMP] | 0.108 | 1.078 | – | – | –
CCCCC/C=C\C/C=C\CCCCCCCC(=O)OC(CO)COC(=O)CCCCCCCCCCCCCCCCC (stereo not drawn) [1-STEAROYL-2-LINOLEOYL-GLYCEROL] | – | – | −0.456 | 0.729 | –
CCCCCc1cc(O)c2c(c1)OC(C)(C)C1CCC(C(=O)O)=CC21 (stereo not drawn) [TETRAHYDROCANNABINOL-7-OIC ACID] | – | – | −0.240 | 0.847 | –
